These results are taken from the supplement of paper PMC10307832.

Holding throughout (test): relative viability (nuclei count vs DMSO), 5 days (fraction); higher = more cells survive
Compound in the test “NVP-TAE684 + Bortezomib”: COc1cc(N2CCC(N3CCN(C)CC3)CC2)ccc1Nc1ncc(Cl)c(Nc2ccccc2S(=O)(=O)C(C)C)n1 [NVP-TAE684] + CC(C)C[C@H](NC(=O)[C@H](Cc1ccccc1)NC(=O)c1cnccn1)B(O)O [Bortezomib] (partner 0.002 µM)
An outline of the steps:
(§1)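 Cells from lung cancer lines were seeded into 1536-well plates and, one day later, dosed by pin tool. Treatments were either a single drug or a fixed dose of an anchor drug with five library-drug doses (not always all listed) in √10 steps. After 5 days, nuclei were stained in a one-step fixation (final 0.05% Triton X-100, 1% formaldehyde, 1 ug/ml Hoechst) and counted on 4× images, and relative viability is the treated-to-vehicle nuclei ratio, as the median of duplicate plates.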

Compound in the test “Vandetanib + Decitabine”: COc1cc2/c(=N/c3ccc(Br)cc3F)nc[nH]c2cc1OCC1CCN(C)CC1 [Vandetanib] + Nc1ncn([C@H]2C[C@H](O)[C@@H](CO)O2)c(=O)n1 [Decitabine] (partner 2 µM)
An outline of the steps:
as §1

Compound in the test “NVP-TAE684 + Decitabine”: COc1cc(N2CCC(N3CCN(C)CC3)CC2)ccc1Nc1ncc(Cl)c(Nc2ccccc2S(=O)(=O)C(C)C)n1 [NVP-TAE684] + Nc1ncn([C@H]2C[C@H](O)[C@@H](CO)O2)c(=O)n1 [Decitabine] (partner 2 µM)
The method in brief: as §1

Compound in the test “Vandetanib + Lapatinib”: COc1cc2/c(=N/c3ccc(Br)cc3F)nc[nH]c2cc1OCC1CCN(C)CC1 [Vandetanib] + CS(=O)(=O)CCNCc1ccc(-c2ccc3ncnc(Nc4ccc(OCc5cccc(F)c5)c(Cl)c4)c3c2)o1 [Lapatinib] (partner 2 µM)
An outline of the steps: as §1

Compound in test [1]: C1=CC=C2C(=C1)N=C(S2)C(C#N)C3=NC(=NC=C3)NCCC4=CN=CC=C4 + O=C(CCCCCCC(=O)Nc1ccccc1)NO [Vorinostat] (partner 1 µM)
An outline of the steps:
as §1

For UMC-11, the relative viability is 0.642 with NVP-TAE684 + Bortezomib (first compound 0.2 µM); 0.97 in the test with NVP-TAE684 + Bortezomib (first compound 0.6325 µM); 0.393 in the test with NVP-TAE684 + Bortezomib (first compound 2 µM); 0.595 with Vandetanib + Decitabine (first compound 0.02 µM); 0.553 with Vandetanib + Decitabine (first compound 0.06325 µM); 0.665 with Vandetanib + Decitabine (first compound 0.2 µM). Besides, the relative viability with Vandetanib + Decitabine (first compound 0.6325 µM) was determined as 0.528; with Vandetanib + Decitabine (first compound 2 µM), 0.614; in the test with NVP-TAE684 + Decitabine (first compound 0.2 µM), 0.582; with NVP-TAE684 + Decitabine (first compound 0.6325 µM), 0.581; in the test with NVP-TAE684 + Decitabine (first compound 2 µM) it was 0.346; with Vandetanib + Lapatinib (first compound 0.02 µM) it was 0.816. Moreover, the relative viability was found to be 0.961 with Vandetanib + Lapatinib (first compound 0.06325 µM); 0.664 with Vandetanib + Lapatinib (first compound 0.2 µM); 0.892 with Vandetanib + Lapatinib (first compound 0.6325 µM); 1.01 with Vandetanib + Lapatinib (first compound 2 µM); 0.36 in test [1] (first compound 0.01581 µM); 0.402 in test [1] (first compound 0.05 µM). Moreover, the relative viability in test [1] (first compound 0.1581 µM) was 0.42; in test [1] (first compound 0.5 µM), 0.422.
